In US20230201244A1, “COMPOSITIONS AND METHODS FOR PREVENTING AND/OR TREATING MICROBIAL INFECTIONS” (University of Louisville Research Foundation, Inc., priority 2020, published 2023):

Columns and labels:
[1] = test system: lung epithelial A549 cells; assay: Apoptosis of A549 cells by flow cytometry (Annexin V/7-AAD); type: cell-based, human
[2] = test system: NF-κB (p65); type: in vivo, C57BL/6 mice; conditions: inhibitor daily for three days at 5 mg/kg/d before intratracheal exosomes
[3] = test system: lung epithelial cells (EpCAM^+); assay: Lung apoptosis in mice given exosomes^Nsp12Nsp13 (TUNEL, Annexin V flow cytometry of EpCAM+ cells); type: in vivo, C57BL/6 mice; conditions: inhibitor pretreatment
[4] = test system: TNFα, IL-1β and IL-6; assay: ELISA of inflammatory cytokines in lung or lung macrophages of mice given exosomes^Nsp12Nsp13; type: in vivo, C57BL/6 mice; conditions: lung macrophages, TNFα and IL-6 ELISA, i.p. pretreatment, FIG. 10B

Cc1ccc(S(=O)(=O)/C=C/C#N)cc1 [Bay 11-7821] was tested, and the “A549 cell apoptosis on direct exposure” value ([1]; A549 cells presented to Nsp12/13, Bay 11-7821, FIG. 5F top panel) was “little influence”, the “apoptosis of lung epithelial cells induced by supernatant from U937 cells treated with exosomes^Nsp12Nsp13” value ([1]; A549 cells, antibodies 10 ng/ml, FIG. 5F middle and bottom panel) was “inhibited” and the “lung macrophage NF-κB activity induced by exosomes^Nsp12Nsp13” value [2] was “inhibited”. For the same molecule, the “induction of lung epithelial cell (EpCAM+) apoptosis” value ([3]; Annexin V flow cytometry, FIG. 5E) was “blocked”, the “lung apoptosis induced by exosomes^Nsp12Nsp13 (TUNEL staining)” value ([3]; lung sections, FIG. 5D) was “reduced” and the “inflammatory cytokines induced by exosomes^Nsp12Nsp13” value [4] was “attenuation of inflammatory cytokines”.
